Where “and” joins values, the source holds several entries; their conditions need not be identical. Equal entries are not always repeated. Inconclusive results and toxic doses are left out.
System: BDF1 mice, P388 leukemia ip, median survival T/C
Test: NCI In Vivo Anticancer Drug Screen. Data for tumor model P388 Leukemia (intraperitoneal) in B6D2F1 (BDF1) mice
Settings: endpoint: median survival time, higher = longer survival
Procedure, shortened: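 Steps: implant the tumour, treat one group with compound and another with vehicle, record survival, then divide treated by control.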

[1] = dose: 75.0 mg/kg/injection, schedule: Q04DX003 (ip), vehicle: Klucel (hydroxypropylcellulose) (HPC)
[2] = dose: 25.0 mg/kg/injection, schedule: Q04DX003 (ip), vehicle: saline with Tween-80
[3] = dose: 200.0 mg/kg/injection, schedule: Q04DX003 (ip), vehicle: saline
[4] = dose: 400.0 mg/kg/injection, schedule: Q04DX003 (ip), vehicle: saline
[5] = dose: 100.0 mg/kg/injection, schedule: Q04DX003 (ip), vehicle: saline with Tween-80
[6] = dose: 200.0 mg/kg/injection, schedule: Q04DX003 (ip), vehicle: saline with Tween-80
[7] = dose: 400.0 mg/kg/injection, schedule: Q04DX003 (ip), vehicle: saline with Tween-80

CC(=O)c1ccc(NC(=O)N(CCCl)N=O)cc1
T/C (dose: 0.29 mg/kg/injection, schedule: Q04DX003 (ip), vehicle: Klucel (hydroxypropylcellulose) (HPC)): 118 % of control | T/C (dose: 0.43 mg/kg/injection, schedule: Q04DX003 (ip), vehicle: Klucel (hydroxypropylcellulose) (HPC)): 113 % of control | T/C (dose: 0.99 mg/kg/injection, schedule: Q04DX003 (ip), vehicle: saline): 150 % of control | T/C (dose: 18.75 mg/kg/injection, schedule: Q04DX003 (ip), vehicle: Klucel (hydroxypropylcellulose) (HPC)): 218 % of control | T/C (dose: 24.75 mg/kg/injection, schedule: Q04DX003 (ip), vehicle: Klucel (hydroxypropylcellulose) (HPC)): 204 % of control | T/C (dose: 37.5 mg/kg/injection, schedule: Q04DX003 (ip), vehicle: Klucel (hydroxypropylcellulose) (HPC)): 236 % of control and 90 % of control | T/C (dose: 56.25 mg/kg/injection, schedule: Q04DX003 (ip), vehicle: Klucel (hydroxypropylcellulose) (HPC)): 109 % of control | T/C [1]: 122 % of control

N#Cc1nc2nc(C(F)(F)F)[nH]c2nc1C#N
T/C (dose: 6.25 mg/kg/injection, schedule: Q04DX003 (ip), vehicle: saline with Tween-80): 100 % of control | T/C (dose: 12.5 mg/kg/injection, schedule: Q01DX009 (ip), vehicle: saline with Tween-80): 95 % of control | T/C (dose: 12.5 mg/kg/injection, schedule: Q04DX003 (ip), vehicle: saline with Tween-80): 100 % of control | T/C [2]: 87 % of control and 90 % of control

C[N+](C)(C)N=C1CCC2(CC1)c1ccccc1-c1ccccc12
T/C (dose: 5.15 mg/kg/injection, schedule: Q04DX003 (ip), vehicle: saline): 95 % of control | T/C (dose: 6.25 mg/kg/injection, schedule: Q01DX009 (ip), vehicle: saline): 95 % of control | T/C (dose: 10.31 mg/kg/injection, schedule: Q04DX003 (ip), vehicle: saline): 100 % of control | T/C (dose: 12.5 mg/kg/injection, schedule: Q01DX009 (ip), vehicle: saline): 91 % of control | T/C (dose: 20.62 mg/kg/injection, schedule: Q04DX003 (ip), vehicle: saline): 115 % of control | T/C (dose: 25.0 mg/kg/injection, schedule: Q01DX009 (ip), vehicle: saline): 100 % of control | T/C (dose: 35.0 mg/kg/injection, schedule: Q01DX009 (ip), vehicle: saline): 113 % of control | T/C (dose: 41.25 mg/kg/injection, schedule: Q04DX003 (ip), vehicle: saline): 104 % of control | T/C (dose: 55.0 mg/kg/injection, schedule: Q01DX009 (ip), vehicle: saline): 90 % of control

C=C1C(=O)O[C@@H]2/C=C(/C)[C@@]3(O)C=C[C@](C)(C[C@@H](OC(=O)/C(=C\C)COC(C)=O)[C@@H]12)O3
T/C (dose: 0.38 mg/kg/injection, schedule: Q01DX010 (ip), vehicle: carboxymethylcellulose (CMC)): 90 % of control | T/C (dose: 0.75 mg/kg/injection, schedule: Q01DX010 (ip), vehicle: carboxymethylcellulose (CMC)): 95 % of control | T/C (dose: 1.0 mg/kg/injection, schedule: Q01DX009 (ip), vehicle: carboxymethylcellulose (CMC)): 103 % of control | T/C (dose: 1.5 mg/kg/injection, schedule: Q01DX010 (ip), vehicle: carboxymethylcellulose (CMC)): 109 % of control | T/C (dose: 2.5 mg/kg/injection, schedule: Q01DX010 (ip), vehicle: saline): 118 % of control | T/C (dose: 3.0 mg/kg/injection, schedule: Q01DX010 (ip), vehicle: carboxymethylcellulose (CMC)): 104 % of control | T/C (dose: 5.0 mg/kg/injection, schedule: Q01DX010 (ip), vehicle: carboxymethylcellulose (CMC)): 157 % of control | T/C (dose: 5.0 mg/kg/injection, schedule: Q01DX010 (ip), vehicle: saline): 122 % of control | T/C (dose: 6.0 mg/kg/injection, schedule: Q01DX010 (ip), vehicle: carboxymethylcellulose (CMC)): 163 % of control | T/C (dose: 8.0 mg/kg/injection, schedule: Q01DX009 (ip), vehicle: carboxymethylcellulose (CMC)): 117 % of control | T/C (dose: 8.0 mg/kg/injection, schedule: Q01DX010 (ip), vehicle: carboxymethylcellulose (CMC)): 157 % of control | T/C (dose: 12.0 mg/kg/injection, schedule: Q01DX010 (ip), vehicle: carboxymethylcellulose (CMC)): 118 % of control | T/C (dose: 18.0 mg/kg/injection, schedule: Q01DX010 (ip), vehicle: saline): 109 % of control | T/C (dose: 27.0 mg/kg/injection, schedule: Q01DX010 (ip), vehicle: carboxymethylcellulose (CMC)): 105 % of control | T/C (dose: 40.0 mg/kg/injection, schedule: Q01DX010 (ip), vehicle: saline): 100 % of control

O=C(O)c1ccc(N=NSc2ncnc3nc[nH]c23)cc1O
T/C (dose: 1.3 mg/kg/injection, schedule: Q01DX009 (ip), vehicle: saline with Tween-80): 115 % of control | T/C (dose: 3.0 mg/kg/injection, schedule: Q01DX009 (ip), vehicle: saline with Tween-80): 153 % of control | T/C (dose: 4.0 mg/kg/injection, schedule: Q01DX009 (ip), vehicle: saline with Tween-80): 150 % of control | T/C (dose: 6.0 mg/kg/injection, schedule: Q01DX009 (ip), vehicle: saline with Tween-80): 119 % of control and 123 % of control | T/C (dose: 9.0 mg/kg/injection, schedule: Q01DX009 (ip), vehicle: saline with Tween-80): 123 % of control | T/C (dose: 12.0 mg/kg/injection, schedule: Q01DX009 (ip), vehicle: saline with Tween-80): 96 % of control | T/C (dose: 14.5 mg/kg/injection, schedule: Q04DX003 (ip), vehicle: saline with Tween-80): 122 % of control | T/C (dose: 22.0 mg/kg/injection, schedule: Q04DX003 (ip), vehicle: saline with Tween-80): 122 % of control | T/C [2]: 161 % of control | T/C (dose: 33.0 mg/kg/injection, schedule: Q04DX003 (ip), vehicle: saline with Tween-80): 118 % of control and 119 % of control | T/C (dose: 50.0 mg/kg/injection, schedule: Q04DX003 (ip), vehicle: saline with Tween-80): 177 % of control | T/C (dose: 75.0 mg/kg/injection, schedule: Q04DX003 (ip), vehicle: saline with Tween-80): 119 % of control

COc1cc(CN2CCCN(Cc3cc(OC)c(OC)c(OC)c3)C2c2ccc(N(CCCl)CCCl)cc2C)cc(OC)c1OC
T/C (dose: 50.0 mg/kg/injection, schedule: Q04DX003 (ip), vehicle: saline): 109 % of control | T/C (dose: 100.0 mg/kg/injection, schedule: Q04DX003 (ip), vehicle: saline): 104 % of control | T/C [3]: 90 % of control | T/C [4]: 109 % of control

O=C1N=C2C=CC=CN2C(=O)C1Cc1ccccc1 (configuration not stated)
T/C [5]: 96 % of control | T/C [6]: 100 % of control | T/C [7]: 104 % of control

O=C(C1=Cc2ccccc2OC1)N1CCN(C(=O)C2=Cc3ccccc3OC2)CC1
T/C [5]: 91 % of control | T/C [6]: 91 % of control | T/C [7]: 86 % of control

O=C(c1ccccc1Cl)n1c(Cl)c(/C=N\Nc2cccc([N+](=O)[O-])c2)c2ccccc21
T/C (dose: 100.0 mg/kg/injection, schedule: Q04DX002 (ip), vehicle: Klucel (hydroxypropylcellulose) (HPC)): 90 % of control | T/C (dose: 200.0 mg/kg/injection, schedule: Q04DX002 (ip), vehicle: Klucel (hydroxypropylcellulose) (HPC)): 89 % of control | T/C (dose: 400.0 mg/kg/injection, schedule: Q04DX002 (ip), vehicle: Klucel (hydroxypropylcellulose) (HPC)): 90 % of control

CC(Cc1ccccc1)NC1CC2CCC1C2 (configuration not stated)
T/C (dose: 6.25 mg/kg/injection, schedule: Q01DX009 (ip), vehicle: Klucel (hydroxypropylcellulose) (HPC)): 104 % of control | T/C (dose: 12.5 mg/kg/injection, schedule: Q01DX009 (ip), vehicle: Klucel (hydroxypropylcellulose) (HPC)): 104 % of control | T/C (dose: 25.0 mg/kg/injection, schedule: Q01DX009 (ip), vehicle: Klucel (hydroxypropylcellulose) (HPC)): 113 % of control

S=C(Nc1ccccc1)NC1CCCCCC1
T/C [1]: 90 % of control | T/C (dose: 150.0 mg/kg/injection, schedule: Q04DX003 (ip), vehicle: Klucel (hydroxypropylcellulose) (HPC)): 100 % of control | T/C (dose: 300.0 mg/kg/injection, schedule: Q04DX003 (ip), vehicle: Klucel (hydroxypropylcellulose) (HPC)): 110 % of control

Nc1ccc2c(-c3ccc([N+](=O)[O-])cc3)cc(=O)[nH]c2n1
T/C [3]: 100 % of control | T/C [4]: 97 % of control

Nc1cccnc1
T/C (dose: 5.0 mg/kg/injection, schedule: Q01DX009 (ip), vehicle: saline): 100 % of control | T/C (dose: 10.0 mg/kg/injection, schedule: Q01DX009 (ip), vehicle: saline): 110 % of control

CCC(C)(O)C(=O)OC1C(=O)OC2CC3C(C)CC(=O)C(O)C3(C)C3C4(O)OCC23C1C(C)C4O (configuration not stated)
T/C (dose: 0.12 mg/kg/injection, schedule: Q01DX009 (ip), vehicle: saline with Tween-80): 121 % of control | T/C (dose: 0.25 mg/kg/injection, schedule: Q01DX009 (ip), vehicle: saline with Tween-80): 118 % of control | T/C (dose: 0.5 mg/kg/injection, schedule: Q01DX009 (ip), vehicle: saline with Tween-80): 116 % of control | T/C (dose: 1.0 mg/kg/injection, schedule: Q01DX009 (ip), vehicle: saline with Tween-80): 121 % of control | T/C (dose: 8.0 mg/kg/injection, schedule: Q01DX009 (ip), vehicle: saline with Tween-80): 122 % of control | T/C (dose: 16.0 mg/kg/injection, schedule: Q01DX009 (ip), vehicle: saline with Tween-80): 152 % of control

Source: PubChem BioAssay AID328 (DTP/NCI, 2004)
